Patent US10538555B2, “Macrocyclic inhibitors of the PD-1/PD-L1 and CD80(B7-1)/PD-L1 protein/protein interactions” (BRISTOL-MYERS SQUIBB COMPANY, priority 2014, dated 2020)
Where two headings read alike, the source gives them in different places. *1 amine or outer side, *2 acyl side, *3 side chain or, on linkers, in order; H or OH if unused. Where a SMILES comes first, the peptide text is derived from it. Bridges are numbered along the chain shown (N, C = ends). [ ]: non-standard residue; d: D form. Phe(3,4,5-F3) = N[C@@H](Cc1cc(F)c(F)c(F)c1)C(=O)O; d(cisHyp) = O=C(O)[C@H]1C[C@@H](O)CN1; NMeF = CN[C@@H](Cc1ccccc1)C(=O)O; X1 = O=C([C@H]1COCCN1[*:1])[*:2]; dPip(4-aza) = O=C(O)[C@H]1CNCCN1; NMeNle = CCCC[C@H](NC)C(=O)O; hSer = N[C@@H](CCO)C(=O)O; Orn = NCCC[C@H](N)C(=O)O

Target: T1, Human PD-L1/PD-1 (Homo sapiens, UniProt Q9NZQ7)
T1 construct: TVMV protease cleavage site (C); made in house; host or cells: HEK293T cells
T1 sequence (Q9NZQ7 with tags, fused parts or gaps): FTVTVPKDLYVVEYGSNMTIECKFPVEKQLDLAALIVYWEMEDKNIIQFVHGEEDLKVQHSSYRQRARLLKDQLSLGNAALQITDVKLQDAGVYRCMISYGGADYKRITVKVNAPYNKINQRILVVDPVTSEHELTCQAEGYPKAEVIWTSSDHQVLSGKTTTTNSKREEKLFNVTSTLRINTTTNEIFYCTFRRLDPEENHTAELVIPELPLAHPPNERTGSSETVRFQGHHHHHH
Experiment: HTRF Human PD-L1/PD-1 binding assay (PD-1-Ig/PD-L1-His)
Conditions: PD-L1-His 10 nM, PD-1-Ig 20 nM
Procedure, shortened: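 Soluble HEK293T-expressed proteins: hPD-L1-His 10 nM, hPD-1-Ig 20 nM final. Cpd + PD-L1 15 min, + PD-1 15 min, + Eu anti-Ig 1 nM/APC anti-His 20 nM 30 min. Buffer dPBS, 0.1% BSA, 0.05% Tween-20. TR-FRET 665/620.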

[1] = class symbol, read-out: HTRF Human PD-L1/PD-1 Binding Assay IC50 Range

SMILES	IC50 [1] [nM]	IC50 (read-out: HTRF Human PD-L1/PD-1 Binding Assay IC50) [nM]
CCCC[C@H]1C(=O)N2C[C@H](O)C[C@@H]2C(=O)N[C@@H](CC(=O)O)C(=O)N[C@@H](C(C)C)C(=O)N(C)[C@@H](Cc2ccccc2)C(=O)N[C@@H](CCCN)C(=O)N2CCC[C@@H]2C(=O)N[C@@H](Cc2c[nH]c3ccccc23)C(=O)N[C@@H](Cc2ccc(O)cc2)C(=O)N[C@@H](CCO)C(=O)N[C@H](C(=O)NCC(N)=O)CSCC(=O)N[C@@H](Cc2cc(F)c(F)c(F)c2)C(=O)N(C)[C@@H](Cc2ccccc2)C(=O)N1C [Example 10152] ({CH2CO}-[Phe(3,4,5-F3)][NMeF][NMeNle][d(cisHyp)]DV[NMeF][Orn][dP]WY[hSer]CG-NH2; thioether N-13)	1 to 9.9	
CCCC[C@H]1C(=O)N2C[C@H](O)C[C@@H]2C(=O)N[C@@H](CC(=O)O)C(=O)N[C@@H](C(C)C)C(=O)N(C)[C@@H](Cc2ccccc2)C(=O)N[C@@H](Cc2ccc(O)cc2)C(=O)N2CCC[C@@H]2C(=O)N[C@@H](Cc2c[nH]c3ccccc23)C(=O)N[C@@H](Cc2ccc(O)cc2)C(=O)N[C@@H](CCO)C(=O)N[C@H](C(=O)NCC(N)=O)CSCC(=O)N[C@@H](Cc2cc(F)c(F)c(F)c2)C(=O)N(C)[C@@H](Cc2ccccc2)C(=O)N1C [Example 10153] ({CH2CO}-[Phe(3,4,5-F3)][NMeF][NMeNle][d(cisHyp)]DV[NMeF]Y[dP]WY[hSer]CG-NH2; thioether N-13)	1 to 9.9	
CCCC[C@H]1C(=O)N2C[C@H](O)C[C@@H]2C(=O)N[C@@H](CC(=O)O)C(=O)N[C@@H](C(C)C)C(=O)N(C)[C@@H](Cc2ccccc2)C(=O)N[C@@H](CCC(=O)O)C(=O)N2CCC[C@@H]2C(=O)N[C@@H](Cc2c[nH]c3ccccc23)C(=O)N[C@@H](Cc2ccc(O)cc2)C(=O)N[C@@H](CCO)C(=O)N[C@H](C(=O)NCC(N)=O)CSCC(=O)N[C@@H](Cc2cc(F)c(F)c(F)c2)C(=O)N(C)[C@@H](Cc2ccccc2)C(=O)N1C [Example 10154] ({CH2CO}-[Phe(3,4,5-F3)][NMeF][NMeNle][d(cisHyp)]DV[NMeF]E[dP]WY[hSer]CG-NH2; thioether N-13)	1 to 9.9	
CCCC[C@H]1C(=O)N2C[C@H](O)C[C@@H]2C(=O)N[C@@H](CC(=O)O)C(=O)N[C@@H](C(C)C)C(=O)N(C)[C@@H](Cc2ccccc2)C(=O)N[C@@H](CC(=O)O)C(=O)N2CCC[C@@H]2C(=O)N[C@@H](Cc2c[nH]c3ccccc23)C(=O)N[C@@H](Cc2ccc(O)cc2)C(=O)N[C@@H](CCO)C(=O)N[C@H](C(=O)NCC(N)=O)CSCC(=O)N[C@@H](Cc2cc(F)c(F)c(F)c2)C(=O)N(C)[C@@H](Cc2ccccc2)C(=O)N1C [Example 10155] ({CH2CO}-[Phe(3,4,5-F3)][NMeF][NMeNle][d(cisHyp)]DV[NMeF]D[dP]WY[hSer]CG-NH2; thioether N-13)	1 to 9.9	
CCCC[C@H]1C(=O)N2C[C@H](O)C[C@@H]2C(=O)N[C@@H](CC(=O)O)C(=O)N[C@@H](C(C)C)C(=O)N(C)[C@@H](Cc2ccccc2)C(=O)N[C@@H](CCC(=O)O)C(=O)N2CCOC[C@@H]2C(=O)N[C@@H](Cc2c[nH]c3ccccc23)C(=O)N[C@@H](Cc2ccc(O)cc2)C(=O)N[C@@H](CCO)C(=O)N[C@H](C(=O)NCC(N)=O)CSCC(=O)N[C@@H](Cc2cc(F)c(F)c(F)c2)C(=O)N(C)[C@@H](Cc2ccccc2)C(=O)N1C [Example 10156] ({CH2CO}-[Phe(3,4,5-F3)][NMeF][NMeNle][d(cisHyp)]DV[NMeF]E[X1]WY[hSer]CG-NH2; thioether N-13)	1 to 9.9	
CCCC[C@H]1C(=O)N2C[C@H](O)C[C@@H]2C(=O)N[C@@H](CC(=O)O)C(=O)N[C@@H](C(C)C)C(=O)N(C)[C@@H](Cc2ccccc2)C(=O)N[C@@H](CC(=O)O)C(=O)N2CCOC[C@@H]2C(=O)N[C@@H](Cc2c[nH]c3ccccc23)C(=O)N[C@@H](Cc2ccc(O)cc2)C(=O)N[C@@H](CCO)C(=O)N[C@H](C(=O)NCC(N)=O)CSCC(=O)N[C@@H](Cc2cc(F)c(F)c(F)c2)C(=O)N(C)[C@@H](Cc2ccccc2)C(=O)N1C [Example 10157] ({CH2CO}-[Phe(3,4,5-F3)][NMeF][NMeNle][d(cisHyp)]DV[NMeF]D[X1]WY[hSer]CG-NH2; thioether N-13)		4.1
CCCC[C@H]1C(=O)N2C[C@H](O)C[C@@H]2C(=O)N[C@@H](CC(=O)O)C(=O)N[C@@H](C(C)C)C(=O)N(C)[C@@H](Cc2ccccc2)C(=O)N[C@@H](CCCN)C(=O)N2CCOC[C@@H]2C(=O)N[C@@H](Cc2c[nH]c3ccccc23)C(=O)N[C@@H](Cc2ccc(O)cc2)C(=O)N[C@@H](CCO)C(=O)N[C@H](C(=O)NCC(N)=O)CSCC(=O)N[C@@H](Cc2cc(F)c(F)c(F)c2)C(=O)N(C)[C@@H](Cc2ccccc2)C(=O)N1C [Example 10158] ({CH2CO}-[Phe(3,4,5-F3)][NMeF][NMeNle][d(cisHyp)]DV[NMeF][Orn][X1]WY[hSer]CG-NH2; thioether N-13)	1 to 9.9	
CCCC[C@H]1C(=O)N2C[C@H](O)C[C@@H]2C(=O)N[C@@H](CC(=O)O)C(=O)N[C@@H](C(C)C)C(=O)N(C)[C@@H](Cc2ccccc2)C(=O)N[C@@H](Cc2ccc(O)cc2)C(=O)N2CCOC[C@@H]2C(=O)N[C@@H](Cc2c[nH]c3ccccc23)C(=O)N[C@@H](Cc2ccc(O)cc2)C(=O)N[C@@H](CCO)C(=O)N[C@H](C(=O)NCC(N)=O)CSCC(=O)N[C@@H](Cc2cc(F)c(F)c(F)c2)C(=O)N(C)[C@@H](Cc2ccccc2)C(=O)N1C [Example 10159] ({CH2CO}-[Phe(3,4,5-F3)][NMeF][NMeNle][d(cisHyp)]DV[NMeF]Y[X1]WY[hSer]CG-NH2; thioether N-13)	1 to 9.9	
CCCC[C@H]1C(=O)N2C[C@H](O)C[C@@H]2C(=O)N[C@@H](CC(=O)O)C(=O)N[C@@H](C(C)C)C(=O)N(C)[C@@H](Cc2ccccc2)C(=O)N[C@@H](Cc2ccc(O)cc2)C(=O)N2CCOC[C@@H]2C(=O)N[C@@H](Cc2c[nH]c3ccccc23)C(=O)N[C@@H](Cc2ccc(O)cc2)C(=O)N[C@@H](CCOC)C(=O)N[C@H](C(=O)NCC(N)=O)CSCC(=O)N[C@@H](Cc2cc(F)c(F)c(F)c2)C(=O)N(C)[C@@H](Cc2ccccc2)C(=O)N1C [Example 10160] ({CH2CO}-[Phe(3,4,5-F3)][NMeF][NMeNle][d(cisHyp)]DV[NMeF]Y[X1]WY[hSer](Me)CG-NH2; thioether N-13)	1 to 9.9	
CCCC[C@H]1C(=O)N2C[C@H](O)C[C@@H]2C(=O)N[C@@H](CC(=O)O)C(=O)N[C@@H](C(C)C)C(=O)N(C)[C@@H](Cc2ccccc2)C(=O)N[C@@H](CC(=O)O)C(=O)N2CCOC[C@@H]2C(=O)N[C@@H](Cc2c[nH]c3ccccc23)C(=O)N[C@@H](Cc2ccc(O)cc2)C(=O)N[C@@H](CCOC)C(=O)N[C@H](C(=O)NCC(N)=O)CSCC(=O)N[C@@H](Cc2cc(F)c(F)c(F)c2)C(=O)N(C)[C@@H](Cc2ccccc2)C(=O)N1C [Example 10161] ({CH2CO}-[Phe(3,4,5-F3)][NMeF][NMeNle][d(cisHyp)]DV[NMeF]D[X1]WY[hSer](Me)CG-NH2; thioether N-13)	1 to 9.9	
CCCC[C@H]1C(=O)N2C[C@H](O)C[C@@H]2C(=O)N[C@@H](CC(=O)O)C(=O)N[C@@H](C(C)C)C(=O)N(C)[C@@H](Cc2ccccc2)C(=O)N[C@@H](CCCN)C(=O)N2CCOC[C@@H]2C(=O)N[C@@H](Cc2c[nH]c3ccccc23)C(=O)N[C@@H](Cc2ccc(O)cc2)C(=O)N[C@@H](CCOC)C(=O)N[C@H](C(=O)NCC(N)=O)CSCC(=O)N[C@@H](Cc2cc(F)c(F)c(F)c2)C(=O)N(C)[C@@H](Cc2ccccc2)C(=O)N1C [Example 10162] ({CH2CO}-[Phe(3,4,5-F3)][NMeF][NMeNle][d(cisHyp)]DV[NMeF][Orn][X1]WY[hSer](Me)CG-NH2; thioether N-13)	1 to 9.9	
CCCC[C@H]1C(=O)N2C[C@H](O)C[C@@H]2C(=O)N[C@@H](CC(=O)O)C(=O)N[C@@H](C(C)C)C(=O)N(C)[C@@H](Cc2ccccc2)C(=O)N[C@@H](CCC(=O)O)C(=O)N2CCNC[C@@H]2C(=O)N[C@@H](Cc2c[nH]c3ccccc23)C(=O)N[C@@H](Cc2ccc(O)cc2)C(=O)N[C@@H](CC(C)C)C(=O)N[C@H](C(=O)NCC(N)=O)CSCC(=O)N[C@@H](Cc2cc(F)c(F)c(F)c2)C(=O)N(C)[C@@H](Cc2ccccc2)C(=O)N1C [Example 10163] ({CH2CO}-[Phe(3,4,5-F3)][NMeF][NMeNle][d(cisHyp)]DV[NMeF]E[dPip(4-aza)]WYLCG-NH2; thioether N-13)	10 to 99.9	
CCCC[C@H]1C(=O)N2C[C@H](O)C[C@@H]2C(=O)N[C@@H](CC(=O)O)C(=O)N[C@@H](C(C)C)C(=O)N(C)[C@@H](Cc2ccccc2)C(=O)N[C@@H](CCC(=O)O)C(=O)N2CCNC[C@@H]2C(=O)N[C@@H](Cc2c[nH]c3ccccc23)C(=O)N[C@@H](Cc2ccc(O)cc2)C(=O)N[C@@H](CCCCN)C(=O)N[C@H](C(=O)NCC(N)=O)CSCC(=O)N[C@@H](Cc2cc(F)c(F)c(F)c2)C(=O)N(C)[C@@H](Cc2ccccc2)C(=O)N1C [Example 10164] ({CH2CO}-[Phe(3,4,5-F3)][NMeF][NMeNle][d(cisHyp)]DV[NMeF]E[dPip(4-aza)]WYKCG-NH2; thioether N-13)	1 to 9.9	
CCCC[C@H]1C(=O)N2C[C@H](O)C[C@@H]2C(=O)N[C@@H](CC(=O)O)C(=O)N[C@@H](C(C)C)C(=O)N(C)[C@@H](Cc2ccccc2)C(=O)N[C@@H](CCC(=O)O)C(=O)N2CCNC[C@@H]2C(=O)N[C@@H](Cc2c[nH]c3ccccc23)C(=O)N[C@@H](Cc2ccc(O)cc2)C(=O)N[C@@H](CCO)C(=O)N[C@H](C(=O)NCC(N)=O)CSCC(=O)N[C@@H](Cc2cc(F)c(F)c(F)c2)C(=O)N(C)[C@@H](Cc2ccccc2)C(=O)N1C [Example 10165] ({CH2CO}-[Phe(3,4,5-F3)][NMeF][NMeNle][d(cisHyp)]DV[NMeF]E[dPip(4-aza)]WY[hSer]CG-NH2; thioether N-13)	1 to 9.9	
